From paper PMC4671066, “Characterization of the 26S proteasome network in Plasmodium falciparum” (Scientific Reports, 2015)

What was measured:
[1] = biological target: T1, PfUSP14 (PFE1355c, ubiquitin carboxyl-terminal hydrolase, putative) (Plasmodium falciparum, UniProt Q8I3J3); assay: concentration-dependent inhibition of recombinant PfUSP14 deubiquitinase activity; format: biochemical
T1 construct: gene PF3D7_0527200; recombinant hexahistidyl-tagged PfUSP14
T1 sequence (Q8I3J3 1-605): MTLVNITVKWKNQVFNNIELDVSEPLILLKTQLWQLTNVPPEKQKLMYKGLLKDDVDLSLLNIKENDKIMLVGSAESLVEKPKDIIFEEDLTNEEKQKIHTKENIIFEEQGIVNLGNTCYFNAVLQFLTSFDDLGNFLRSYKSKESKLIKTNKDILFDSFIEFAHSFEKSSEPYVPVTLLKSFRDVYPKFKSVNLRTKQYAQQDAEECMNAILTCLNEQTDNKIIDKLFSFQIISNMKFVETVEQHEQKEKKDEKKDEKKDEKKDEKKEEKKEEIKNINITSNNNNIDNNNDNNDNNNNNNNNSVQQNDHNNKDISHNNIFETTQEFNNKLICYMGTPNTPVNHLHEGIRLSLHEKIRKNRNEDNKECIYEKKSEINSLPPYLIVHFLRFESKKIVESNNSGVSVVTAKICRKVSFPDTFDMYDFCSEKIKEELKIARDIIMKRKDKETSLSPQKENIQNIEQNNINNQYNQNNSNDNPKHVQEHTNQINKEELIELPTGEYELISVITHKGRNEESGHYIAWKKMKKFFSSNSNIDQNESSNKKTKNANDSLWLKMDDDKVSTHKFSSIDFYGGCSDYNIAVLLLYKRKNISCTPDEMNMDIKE

[2] = biological target: T2, P. falciparum 26S proteasome, β5 subunit (chymotrypsin-like activity) (Plasmodium falciparum, UniProt Q8IJT1); format: biochemical
T2 construct: gene PF3D7_1011400; with other 20S and 19S proteasome subunits
T2 sequence (Q8IJT1 61-271): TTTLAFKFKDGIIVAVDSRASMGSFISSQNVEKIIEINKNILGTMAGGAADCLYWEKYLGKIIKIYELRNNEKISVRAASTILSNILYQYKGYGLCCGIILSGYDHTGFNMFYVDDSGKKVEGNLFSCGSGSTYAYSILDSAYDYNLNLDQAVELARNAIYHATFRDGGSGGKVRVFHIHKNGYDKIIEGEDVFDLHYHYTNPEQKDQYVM
T2 sequence (A0A5K1K7U1 39-240 partner): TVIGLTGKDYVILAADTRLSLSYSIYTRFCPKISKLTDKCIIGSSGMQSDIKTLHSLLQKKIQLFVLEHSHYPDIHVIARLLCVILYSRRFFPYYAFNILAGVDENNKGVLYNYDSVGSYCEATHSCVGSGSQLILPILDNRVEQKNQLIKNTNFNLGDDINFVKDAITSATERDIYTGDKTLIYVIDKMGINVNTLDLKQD

In the case of `C=CC(=O)N1C/C(=C\c2ccc([N+](=O)[O-])cc2)C(=O)/C(=C/c2ccc([N+](=O)[O-])cc2)C1` [b-AP15], the IC50 [1] is reported as 11.3 ± 4.7 µM.

With `CC(=O)N[C@@H](CSC(=O)[C@]1([C@@H](O)C(C)C)NC(=O)[C@H](C)[C@@H]1O)C(=O)O` [lactacystin] the “fluorogenic peptide (Suc-LLVY-AMC) cleavage by purified proteasome, inhibitor at” value [2] was “the respective proteolytic activities were shown to be inhibited by the proteasome inhibitors MG132 and lactacystin”.
